Consider six compounds from ChEMBL document CHEMBL5465560, “Selectivity Literature for EUbOPEN Chemogenomic Library” (2024).

Assay [1] addresses T1, Beta-adrenergic receptor kinase 1 (Homo sapiens) (UniProt P25098).
T1 sequence (whole entry): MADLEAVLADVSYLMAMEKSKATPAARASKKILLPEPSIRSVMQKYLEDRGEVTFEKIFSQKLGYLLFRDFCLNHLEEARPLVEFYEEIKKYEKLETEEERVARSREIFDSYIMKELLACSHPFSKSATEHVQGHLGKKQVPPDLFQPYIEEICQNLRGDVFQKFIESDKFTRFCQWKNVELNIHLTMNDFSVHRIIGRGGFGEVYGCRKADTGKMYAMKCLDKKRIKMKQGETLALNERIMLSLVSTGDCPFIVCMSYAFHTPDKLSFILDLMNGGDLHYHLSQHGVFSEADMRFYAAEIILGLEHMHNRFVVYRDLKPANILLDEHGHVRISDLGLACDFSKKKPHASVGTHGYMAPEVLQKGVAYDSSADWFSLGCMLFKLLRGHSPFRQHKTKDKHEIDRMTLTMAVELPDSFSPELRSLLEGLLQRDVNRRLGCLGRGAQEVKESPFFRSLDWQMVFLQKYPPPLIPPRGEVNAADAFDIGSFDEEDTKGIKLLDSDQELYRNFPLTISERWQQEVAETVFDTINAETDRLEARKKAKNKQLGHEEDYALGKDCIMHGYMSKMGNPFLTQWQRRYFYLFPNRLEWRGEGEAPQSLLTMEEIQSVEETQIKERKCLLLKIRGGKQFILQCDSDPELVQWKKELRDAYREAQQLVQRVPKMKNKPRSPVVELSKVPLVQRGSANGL
The assay can be described thus: Selectivity interaction (Kinase panel (Z-LYTE Assay)) EUB0001632a ADRBK1. Conditions: at 10 µM.

For assay [2], the target named is Leucine-rich repeat serine/threonine-protein kinase 2 (Homo sapiens, UniProt Q5S007). The experiment in a line: Selectivity interaction (Enzymatic assay) EUB0001632a LRRK2.
Chain of Leucine-rich repeat serine/threonine-protein kinase 2 (Q5S007 whole entry): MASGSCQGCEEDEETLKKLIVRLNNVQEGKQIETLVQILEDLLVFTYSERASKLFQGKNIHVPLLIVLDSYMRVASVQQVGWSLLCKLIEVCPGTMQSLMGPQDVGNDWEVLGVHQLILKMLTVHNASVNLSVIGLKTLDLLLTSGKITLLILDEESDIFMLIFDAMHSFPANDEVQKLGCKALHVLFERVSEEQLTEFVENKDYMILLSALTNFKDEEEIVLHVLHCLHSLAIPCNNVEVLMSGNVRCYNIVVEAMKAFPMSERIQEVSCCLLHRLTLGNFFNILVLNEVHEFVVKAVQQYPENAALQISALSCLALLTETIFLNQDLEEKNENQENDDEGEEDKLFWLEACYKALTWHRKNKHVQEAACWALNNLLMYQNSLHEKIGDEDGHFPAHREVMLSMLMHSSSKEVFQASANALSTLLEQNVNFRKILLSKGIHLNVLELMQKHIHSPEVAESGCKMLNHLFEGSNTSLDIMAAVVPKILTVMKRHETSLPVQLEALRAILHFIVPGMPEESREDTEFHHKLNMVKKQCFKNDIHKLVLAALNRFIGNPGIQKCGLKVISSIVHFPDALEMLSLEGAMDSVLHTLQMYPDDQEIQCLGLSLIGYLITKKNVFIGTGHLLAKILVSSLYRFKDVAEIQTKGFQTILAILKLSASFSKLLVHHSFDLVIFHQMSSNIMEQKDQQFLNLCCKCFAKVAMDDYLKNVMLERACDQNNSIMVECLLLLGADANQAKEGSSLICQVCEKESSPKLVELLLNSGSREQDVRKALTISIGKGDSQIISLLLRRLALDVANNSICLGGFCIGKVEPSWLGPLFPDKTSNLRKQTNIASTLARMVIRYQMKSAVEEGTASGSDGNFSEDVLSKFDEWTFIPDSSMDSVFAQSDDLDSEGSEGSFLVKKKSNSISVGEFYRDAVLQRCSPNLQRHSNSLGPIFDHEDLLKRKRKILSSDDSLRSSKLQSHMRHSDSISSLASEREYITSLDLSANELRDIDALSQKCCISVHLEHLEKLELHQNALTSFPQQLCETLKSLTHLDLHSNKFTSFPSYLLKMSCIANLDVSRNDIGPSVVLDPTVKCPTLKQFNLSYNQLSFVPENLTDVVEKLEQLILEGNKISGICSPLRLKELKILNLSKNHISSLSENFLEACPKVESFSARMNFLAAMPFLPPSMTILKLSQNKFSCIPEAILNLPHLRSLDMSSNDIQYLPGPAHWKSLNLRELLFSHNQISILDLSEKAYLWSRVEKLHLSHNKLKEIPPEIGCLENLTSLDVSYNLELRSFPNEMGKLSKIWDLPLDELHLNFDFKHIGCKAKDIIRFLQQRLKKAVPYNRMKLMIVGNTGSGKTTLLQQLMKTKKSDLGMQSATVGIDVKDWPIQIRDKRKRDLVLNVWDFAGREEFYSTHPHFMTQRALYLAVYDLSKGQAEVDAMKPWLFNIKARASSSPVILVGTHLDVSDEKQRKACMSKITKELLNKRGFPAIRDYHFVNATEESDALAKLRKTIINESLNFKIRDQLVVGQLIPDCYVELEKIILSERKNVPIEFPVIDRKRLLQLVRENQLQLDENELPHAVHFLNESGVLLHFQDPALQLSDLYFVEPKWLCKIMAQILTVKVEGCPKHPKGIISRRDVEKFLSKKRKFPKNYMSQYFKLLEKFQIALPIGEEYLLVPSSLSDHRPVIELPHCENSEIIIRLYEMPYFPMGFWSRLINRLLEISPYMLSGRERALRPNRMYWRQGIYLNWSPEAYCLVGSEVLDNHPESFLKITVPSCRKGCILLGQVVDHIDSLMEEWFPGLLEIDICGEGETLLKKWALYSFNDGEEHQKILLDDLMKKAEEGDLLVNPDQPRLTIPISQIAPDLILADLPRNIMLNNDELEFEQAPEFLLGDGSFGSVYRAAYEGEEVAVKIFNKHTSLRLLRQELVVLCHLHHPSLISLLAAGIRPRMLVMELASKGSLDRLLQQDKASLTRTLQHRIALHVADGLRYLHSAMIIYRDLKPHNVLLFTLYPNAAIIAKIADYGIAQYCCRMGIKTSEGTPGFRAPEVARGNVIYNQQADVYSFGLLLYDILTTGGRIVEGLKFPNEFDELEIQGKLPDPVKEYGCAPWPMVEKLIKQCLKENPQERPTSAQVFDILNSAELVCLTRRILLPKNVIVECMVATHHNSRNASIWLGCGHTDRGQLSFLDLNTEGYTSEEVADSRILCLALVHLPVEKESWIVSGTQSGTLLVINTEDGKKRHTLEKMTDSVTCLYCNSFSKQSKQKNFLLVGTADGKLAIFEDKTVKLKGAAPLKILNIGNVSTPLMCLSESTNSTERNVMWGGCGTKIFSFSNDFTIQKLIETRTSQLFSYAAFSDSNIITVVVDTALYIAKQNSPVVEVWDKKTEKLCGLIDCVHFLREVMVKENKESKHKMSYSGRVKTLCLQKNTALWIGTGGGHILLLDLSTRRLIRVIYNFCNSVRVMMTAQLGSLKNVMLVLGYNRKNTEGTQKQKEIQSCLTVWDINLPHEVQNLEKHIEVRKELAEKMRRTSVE
For assay [3], the target named is Hepatocyte growth factor receptor (Homo sapiens, UniProt P08581). The assay can be described thus: Selectivity interaction (Kinase panel (enzymatic assay)) EUB0000595a MET.
Chain of Hepatocyte growth factor receptor (P08581 whole entry): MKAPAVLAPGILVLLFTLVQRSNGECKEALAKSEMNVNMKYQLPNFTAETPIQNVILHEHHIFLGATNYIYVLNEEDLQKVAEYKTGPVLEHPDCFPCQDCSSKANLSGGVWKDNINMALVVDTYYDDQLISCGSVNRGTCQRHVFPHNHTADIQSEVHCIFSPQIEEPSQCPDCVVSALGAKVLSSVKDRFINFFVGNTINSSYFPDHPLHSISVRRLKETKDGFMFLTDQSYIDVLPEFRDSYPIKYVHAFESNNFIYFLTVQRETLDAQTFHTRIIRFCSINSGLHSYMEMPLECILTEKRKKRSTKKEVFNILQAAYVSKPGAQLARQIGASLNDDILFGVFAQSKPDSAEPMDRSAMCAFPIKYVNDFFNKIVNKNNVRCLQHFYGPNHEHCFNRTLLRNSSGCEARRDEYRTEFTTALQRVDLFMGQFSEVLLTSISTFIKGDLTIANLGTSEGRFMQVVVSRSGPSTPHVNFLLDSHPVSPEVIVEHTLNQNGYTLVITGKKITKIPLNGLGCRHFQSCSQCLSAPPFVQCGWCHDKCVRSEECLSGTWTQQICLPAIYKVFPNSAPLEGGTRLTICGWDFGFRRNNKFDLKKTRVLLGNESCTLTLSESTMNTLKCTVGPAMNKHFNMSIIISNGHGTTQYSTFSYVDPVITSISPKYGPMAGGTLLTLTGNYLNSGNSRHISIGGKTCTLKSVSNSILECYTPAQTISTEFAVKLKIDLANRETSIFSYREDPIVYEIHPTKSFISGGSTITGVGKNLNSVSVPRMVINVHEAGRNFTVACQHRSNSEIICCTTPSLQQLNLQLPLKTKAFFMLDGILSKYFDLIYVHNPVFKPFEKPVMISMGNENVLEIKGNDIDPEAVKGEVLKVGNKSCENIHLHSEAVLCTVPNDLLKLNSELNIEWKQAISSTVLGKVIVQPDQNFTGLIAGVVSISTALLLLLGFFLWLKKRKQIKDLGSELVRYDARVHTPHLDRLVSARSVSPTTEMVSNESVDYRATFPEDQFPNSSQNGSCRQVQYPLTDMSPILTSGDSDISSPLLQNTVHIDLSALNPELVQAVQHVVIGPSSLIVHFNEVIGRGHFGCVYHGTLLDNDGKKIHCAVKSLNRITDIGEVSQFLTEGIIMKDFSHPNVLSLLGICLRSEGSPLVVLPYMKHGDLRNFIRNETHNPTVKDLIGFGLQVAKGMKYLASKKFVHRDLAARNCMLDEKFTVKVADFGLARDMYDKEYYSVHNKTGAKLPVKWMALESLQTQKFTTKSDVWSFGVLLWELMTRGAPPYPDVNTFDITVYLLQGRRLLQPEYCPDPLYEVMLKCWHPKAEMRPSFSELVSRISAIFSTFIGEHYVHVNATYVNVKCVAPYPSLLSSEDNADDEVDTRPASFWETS
The target in assay [4] is T2, Dual specificity protein kinase TTK (Homo sapiens) (UniProt P33981).
T2 sequence (whole entry): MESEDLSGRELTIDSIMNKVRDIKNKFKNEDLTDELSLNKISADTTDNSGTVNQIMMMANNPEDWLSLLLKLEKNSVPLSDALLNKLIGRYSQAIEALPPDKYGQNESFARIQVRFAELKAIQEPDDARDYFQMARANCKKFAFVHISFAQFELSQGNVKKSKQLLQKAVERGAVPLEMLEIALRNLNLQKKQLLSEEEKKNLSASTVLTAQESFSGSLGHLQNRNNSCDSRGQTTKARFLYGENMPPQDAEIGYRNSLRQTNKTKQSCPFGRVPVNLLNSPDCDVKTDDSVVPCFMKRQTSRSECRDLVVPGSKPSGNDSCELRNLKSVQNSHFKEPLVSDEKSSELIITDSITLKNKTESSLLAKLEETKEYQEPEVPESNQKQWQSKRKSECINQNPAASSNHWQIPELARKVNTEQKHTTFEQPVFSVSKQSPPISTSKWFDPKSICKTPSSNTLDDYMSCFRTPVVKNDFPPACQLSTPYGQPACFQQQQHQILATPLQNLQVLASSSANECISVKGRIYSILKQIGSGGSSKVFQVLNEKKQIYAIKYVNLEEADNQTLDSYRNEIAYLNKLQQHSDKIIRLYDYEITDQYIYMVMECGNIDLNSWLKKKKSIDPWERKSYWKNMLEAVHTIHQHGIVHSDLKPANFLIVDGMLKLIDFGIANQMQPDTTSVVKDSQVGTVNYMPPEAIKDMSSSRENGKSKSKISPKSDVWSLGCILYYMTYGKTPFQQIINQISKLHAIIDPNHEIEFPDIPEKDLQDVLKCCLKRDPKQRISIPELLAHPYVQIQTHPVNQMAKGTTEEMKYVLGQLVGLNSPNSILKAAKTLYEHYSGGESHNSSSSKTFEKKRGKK
The experiment in a line: Selectivity interaction (KinomeScan (DiscoverX)) EUB0000695a TTK. Conditions: at 100 nM.

Assay [5] addresses T3, Ephrin type-A receptor 3 (Homo sapiens) (UniProt P29320).
T3 sequence (whole entry): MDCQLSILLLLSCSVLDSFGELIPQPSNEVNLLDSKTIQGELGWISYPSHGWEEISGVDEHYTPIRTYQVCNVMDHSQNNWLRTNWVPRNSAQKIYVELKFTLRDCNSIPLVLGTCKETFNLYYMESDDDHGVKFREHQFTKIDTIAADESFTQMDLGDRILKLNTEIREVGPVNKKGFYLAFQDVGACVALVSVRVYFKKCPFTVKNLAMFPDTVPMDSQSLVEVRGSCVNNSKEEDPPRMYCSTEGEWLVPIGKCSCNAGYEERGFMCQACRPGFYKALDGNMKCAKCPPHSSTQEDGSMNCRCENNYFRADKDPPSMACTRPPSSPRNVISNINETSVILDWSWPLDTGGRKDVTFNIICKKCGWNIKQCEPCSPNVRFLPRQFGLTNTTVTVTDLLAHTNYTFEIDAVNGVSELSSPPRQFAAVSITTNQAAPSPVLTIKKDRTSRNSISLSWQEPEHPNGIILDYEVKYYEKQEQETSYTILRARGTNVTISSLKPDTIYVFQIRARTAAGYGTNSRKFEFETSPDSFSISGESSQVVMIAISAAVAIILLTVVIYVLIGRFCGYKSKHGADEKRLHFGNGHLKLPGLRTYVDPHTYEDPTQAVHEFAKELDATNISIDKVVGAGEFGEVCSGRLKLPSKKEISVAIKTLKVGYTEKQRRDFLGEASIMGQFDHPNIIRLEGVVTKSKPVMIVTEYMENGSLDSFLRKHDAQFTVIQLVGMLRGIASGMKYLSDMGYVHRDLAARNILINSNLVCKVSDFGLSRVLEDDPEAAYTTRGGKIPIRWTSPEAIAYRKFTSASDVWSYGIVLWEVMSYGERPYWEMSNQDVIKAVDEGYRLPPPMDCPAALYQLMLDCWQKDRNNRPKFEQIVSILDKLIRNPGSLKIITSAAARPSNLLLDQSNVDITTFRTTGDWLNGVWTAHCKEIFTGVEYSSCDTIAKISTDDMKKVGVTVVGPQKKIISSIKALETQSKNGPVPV
The experiment in a line: Selectivity interaction (Ambit KINOMEscan and KiNATiv profiling in Jurkat cells) EUB0000090b EPHA3. The format is cell-based. As to conditions: at 1 µM.

The target in assay [6] is Cyclin-dependent kinase-like 3 (Homo sapiens) (UniProt Q8IVW4). The assay can be described thus: Selectivity interaction (KinomeScan (DiscoverX)) EUB0000229b CDKL3. As to conditions: at 10 µM.
The target in assay [7] is Serine/threonine-protein kinase 16 (Homo sapiens, UniProt O75716). The assay can be described thus: Selectivity interaction (KinomeScan (DiscoverX)) EUB0000229b STK16. Conditions: at 10 µM.
Chain of Serine/threonine-protein kinase 16 (O75716 whole entry): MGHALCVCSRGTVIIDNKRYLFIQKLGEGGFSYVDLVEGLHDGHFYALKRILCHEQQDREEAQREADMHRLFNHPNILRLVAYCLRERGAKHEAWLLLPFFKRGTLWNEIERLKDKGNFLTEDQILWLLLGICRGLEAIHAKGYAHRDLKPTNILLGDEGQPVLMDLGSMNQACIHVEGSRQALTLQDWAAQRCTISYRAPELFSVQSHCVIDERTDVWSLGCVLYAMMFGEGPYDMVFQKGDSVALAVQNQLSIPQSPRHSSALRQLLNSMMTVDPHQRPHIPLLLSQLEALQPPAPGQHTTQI
The target of assay [8] is Acylglycerol kinase, mitochondrial (Homo sapiens) (UniProt Q53H12). The assay can be described thus: Selectivity interaction (Kinase panel (KiNativ target engagement assay in Jurkat cells)) EUB0001635a AGK. The format is cell-based. As to conditions: Selectivity number of off-targets 0.0, Selectivity number of targets 233.0, Source Knowledge https://www.sciencedirect.com/science/article/pii/S2451945619300674?via%3Dihub, at 1 µM.
Chain of Acylglycerol kinase, mitochondrial (Homo sapiens) (Q53H12 whole entry): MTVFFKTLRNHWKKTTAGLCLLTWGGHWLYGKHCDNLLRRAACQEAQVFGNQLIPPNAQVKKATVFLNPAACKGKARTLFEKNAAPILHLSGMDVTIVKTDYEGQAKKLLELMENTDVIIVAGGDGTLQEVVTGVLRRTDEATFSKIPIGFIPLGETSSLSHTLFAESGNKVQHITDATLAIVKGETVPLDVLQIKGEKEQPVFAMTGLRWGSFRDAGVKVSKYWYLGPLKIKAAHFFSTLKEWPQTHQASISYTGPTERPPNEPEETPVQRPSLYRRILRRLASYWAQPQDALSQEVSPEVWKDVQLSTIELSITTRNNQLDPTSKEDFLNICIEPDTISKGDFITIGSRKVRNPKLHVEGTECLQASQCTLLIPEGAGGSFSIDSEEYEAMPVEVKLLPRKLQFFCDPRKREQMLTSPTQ

As usually defined, the IC50 is the concentration that gives 50% inhibition. Regarding `Cn1cc(-n2cnc3c(NCc4nc5cc(Cl)c(Cl)cc5[nH]4)nc(N4CCOCC4)nc32)cn1`, the % of control in assay [1] was -5.86%. The IC50 in assay [2] is over 10 µM.
In assay [3], `COCC(=O)NC/C=C/c1ccc2ncnc(Nc3ccc(Oc4ccc(C)nc4)c(C)c3)c2c1` [CP-724714] yielded an IC50 of over 10 µM.
With `Cc1cc(F)c(C(=O)Nc2cccc(-c3nncn3C(C)C)n2)cc1-n1cnc(C2CC2)c1`, the % of control in assay [4] was 87%.
With `CN(C)C/C=C/C(=O)Nc1ccc(C(=O)N2CCCC(Nc3ncc(Cl)c(-c4c[nH]c5ccccc45)n3)C2)cc1` (stereo not drawn), the % of control in assay [5] was 89%.
As for `COc1cc(N(C)c2ccnc3ccc(C(F)(F)F)cc23)cc(OC)c1OC`, the % binding amounted to 88% in assay [6] and 90% in assay [7].
Consider `C=CC(=O)Nc1ccc(C(=O)Nc2[nH]nc3c2CN(C(=O)N[C@H](CN(C)C)c2ccccc2)C3(C)C)cc1`, for which the % of engagement in assay [8] is -3.9%.
